Reference: patent publication US20240216900A1, “SABRE CATALYSTS CONTAINING FLUORINATED CARBON CHAINS FOR DELIVERY OF METAL-FREE MRI CONTRAST AGENTS” (The U.S.A., as represented by the Secretary, Department of …, priority 2022, published 2024)

Assays:
[1] = cited from earlier work
[2] = Relaxation dynamics of hyperpolarized [1-13C]pyruvate (build-up time Tb and T1)
[3] = as above; remark: listed apart in the source
From the text: In addition, the relaxation dynamics of the [1-^13C]pyruvate were also studied.
In addition, relaxation dynamics at earth field and 1.8 T are about the same as a non-fluorinated SABRE catalyst T1=28.9±1.6 s and 66.5±7 s, respectively.

[4] = Example 7: Example 4 catalyst, DMSO, methanol
[5] = Example 25: Example 4 catalyst, DMSO, NFBME/MeOD fluorous mixture
[6] = Example 31: Example 4 catalyst, DMSO, CD3OD/Novec 7100
[7] = Example 32: Example 4 catalyst, PTMSO, CD3OD/Novec 7100

## [HH] [Example H2]
[1]
  H2 solubility in water: about 1.6 mg/L

## CC(=O)C(=O)O [[1-^13C]pyruvate, sodium [1-^13C]pyruvate]
[2]; [4]
  T1 (relaxation at 0.4 μT): 16.1 ± 0.9 s
[2]; [5]
  T1 (relaxation at 0.4 μT): 11.3 ± 1.3 s
[2]; [6]
  T1 (relaxation at 0.4 μT): 12.6 ± 1.1 s
[2]; [7]
  T1 (relaxation at 0.4 μT): 18.0 ± 0.8 s
[3]; [4]
  T1 at 1.8T: 66.5 ± 7 s
  T1 at earth field: 28.9 ± 1.6 s
[3]; [5]
  T1 at 1.8T: 16.0 ± 1.4 s
  T1 at earth field: 9.0 ± 1.9 s
[3]; [6]
  T1 at 1.8T: 66.5 ± 3.6 s
  T1 at earth field: 9.3 ± 0.8 s
[3]; [7]
  T1 at 1.8T: 59.0 ± 8.1 s
  T1 at earth field: 14.9 ± 1.0 s
